Data as given in ChEMBL document CHEMBL5649166, “RIP3 induces apoptosis independent of pronecrotic kinase activity” (Mol Cell, 2014).
Calls of active or inactive are those of the source. The rule behind the calls is not given here.

What was measured:
SVEC4-10 = experiment: Inhibition of DAI-induced necroptosis in MCMV M45mutRHIM infected mouse SVEC4-10 cells assessed as increase in cell viability at 10 uM incubated for 18 hrs by Cell Titer-Glo luminescent cell viability assay; type: functional, cell-based
3T3SA [1] = experiment: Induction of apoptosis in mouse 3T3SA cells assessed as cell death by measuring percent of PI positive cells incubated for 3 hrs by PI staining based flow cytometric analysis (reference value: 10.7%); type: toxicity
L929 = experiment: Induction of apoptosis in mouse L929 cells transfected with RIP3 shRNA at 10 uM incubated for 18 hrs by Cell Titer-Glo luminescent cell viability assay; type: toxicity, cell-based; conditions: l929, 18 h
3T3SA [2] = experiment: Induction of apoptosis in mouse 3T3SA cells transfected with RIP3 shRNA assessed as increase in caspase3/7 proteolytic activity incubated for 4 hrs; type: toxicity, cell-based
3T3SA [3] = experiment: Induction of apoptosis in mouse 3T3SA cells incubated for 18 hrs in presence of zLEHD by Cell Titer-Glo luminescent cell viability assay; type: toxicity, cell-based
3T3SA [4] = experiment: Induction of apoptosis in mouse 3T3SA cells assessed as increase in caspase 8 proteolytic activity incubated for 2.5 hrs; type: toxicity, cell-based
3T3SA [5] = experiment: Induction of apoptosis in mouse 3T3SA cells transfected with Caspase8 siRNA incubated for 2.5 hrs by Cell Titer-Glo luminescent cell viability assay; type: toxicity, cell-based
MEF = experiment: Induction of apoptosis in cFLIPL-/- MEF cells incubated for 18 hrs by Cell Titer-Glo luminescent cell viability assay; type: toxicity, cell-based; conditions: mouse
[6] = target: Serine/threonine-protein kinase ULK2 (Homo sapiens) (UniProt Q8IYT8); experiment: Inhibition of human ULK2 using myelin basic protein as substrate at 1 uM in presence of 32P-ATP by Hotspot assay relative to control; values are per cent of control
Serine/threonine-protein kinase ULK2 (Homo sapiens), sequence (Q8IYT8 whole entry): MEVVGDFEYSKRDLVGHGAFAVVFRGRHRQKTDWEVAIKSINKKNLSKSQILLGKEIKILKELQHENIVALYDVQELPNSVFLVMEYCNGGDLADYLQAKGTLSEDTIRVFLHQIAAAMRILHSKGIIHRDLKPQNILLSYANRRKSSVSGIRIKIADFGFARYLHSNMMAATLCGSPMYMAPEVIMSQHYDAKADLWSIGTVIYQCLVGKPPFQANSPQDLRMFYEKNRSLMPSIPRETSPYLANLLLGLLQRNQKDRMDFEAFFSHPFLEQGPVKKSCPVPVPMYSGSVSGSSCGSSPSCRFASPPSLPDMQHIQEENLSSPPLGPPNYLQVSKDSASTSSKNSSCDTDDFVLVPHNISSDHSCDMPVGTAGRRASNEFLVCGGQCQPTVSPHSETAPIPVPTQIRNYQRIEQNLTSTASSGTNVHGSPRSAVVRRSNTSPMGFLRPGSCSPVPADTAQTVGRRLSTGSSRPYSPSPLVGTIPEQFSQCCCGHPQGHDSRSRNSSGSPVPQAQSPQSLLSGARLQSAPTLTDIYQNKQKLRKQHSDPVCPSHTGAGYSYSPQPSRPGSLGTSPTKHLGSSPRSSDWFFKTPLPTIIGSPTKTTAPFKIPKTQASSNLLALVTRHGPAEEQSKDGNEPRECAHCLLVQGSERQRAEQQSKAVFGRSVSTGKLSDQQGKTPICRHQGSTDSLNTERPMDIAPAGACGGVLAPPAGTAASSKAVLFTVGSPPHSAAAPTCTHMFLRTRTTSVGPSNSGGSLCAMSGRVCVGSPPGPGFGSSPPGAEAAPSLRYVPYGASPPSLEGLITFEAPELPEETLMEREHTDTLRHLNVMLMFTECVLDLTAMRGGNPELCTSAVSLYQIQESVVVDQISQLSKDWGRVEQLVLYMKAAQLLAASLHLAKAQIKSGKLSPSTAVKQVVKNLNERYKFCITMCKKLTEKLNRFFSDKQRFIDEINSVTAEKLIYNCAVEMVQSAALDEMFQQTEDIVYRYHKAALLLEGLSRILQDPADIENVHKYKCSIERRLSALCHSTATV

Row | SMILES | inhibition (SVEC4-10) | Activity (3T3SA [1]) [%] | Activity (L929) | Activity (3T3SA [2]) | Activity (3T3SA [3]) | Activity (3T3SA [4]) | Activity (3T3SA [5]) | Activity (MEF) | residual activity [6] [%]
1 | CC(C)S(=O)(=O)c1ccc2nccc(Nc3ccc4scnc4c3)c2c1 | inactive | 24 | Non-Toxic | Non-Toxic | Toxic | Toxic | Non-Toxic | Non-Toxic | –
2 | CNC(=O)c1ccc2c(c1)ncn2-c1ccc(CC(=O)OC(C)(C)C)cc1 | – | – | – | – | – | – | – | – | 96.1
